In the NIST ThermoML archive (doi:10.1021/je8008864):

Assay: mn = molality of the nth substance listed, in mol/kg
Conditions: 101 kPa, Liquid; for viscosity: Rotational; for mass density: Vibrating tube method

CNCCC=C1c2ccccc2CCc2ccccc21.Cl + O
Conditions	mass density [kg/m3]	viscosity [mPa·s]
293.15 K, m1 = 0.0075	998.486	1.035
293.15 K, m1 = 0.01	998.545	1.035
293.15 K, m1 = 0.0125	998.599	1.036
293.15 K, m1 = 0.0152	998.645	1.036
293.15 K, m1 = 0.0175	998.668	1.037
293.15 K, m1 = 0.02	998.705	1.037
293.15 K, m1 = 0.025	998.721	1.038
298.15 K, m1 = 0.0076	997.322	0.9368
298.15 K, m1 = 0.01	997.382	0.937
298.15 K, m1 = 0.0125	997.428	0.9374
298.15 K, m1 = 0.0152	997.469	0.9376
298.15 K, m1 = 0.0175	997.499	0.9379
298.15 K, m1 = 0.02	997.521	0.9382
298.15 K, m1 = 0.025	997.545	0.9388
303.15 K, m1 = 0.0076	995.904	0.8338
303.15 K, m1 = 0.01	995.959	0.8339
303.15 K, m1 = 0.0125	996.001	0.8342
303.15 K, m1 = 0.0152	996.045	0.8345
303.15 K, m1 = 0.0175	996.065	0.8348
303.15 K, m1 = 0.02	996.085	0.8349
303.15 K, m1 = 0.025	996.105	0.8356
308.15 K, m1 = 0.0076	994.285	0.7279
308.15 K, m1 = 0.01	994.335	0.7281
308.15 K, m1 = 0.0125	994.379	0.7283
308.15 K, m1 = 0.0152	994.409	0.7285
308.15 K, m1 = 0.0175	994.435	0.7286
308.15 K, m1 = 0.02	994.455	0.7289
308.15 K, m1 = 0.025	994.465	0.7293
310.15 K, m1 = 0.0076	993.565	0.6925
310.15 K, m1 = 0.01	993.621	0.6928
310.15 K, m1 = 0.0125	993.659	0.6929
310.15 K, m1 = 0.0152	993.689	0.6931
310.15 K, m1 = 0.0175	993.712	0.6932
310.15 K, m1 = 0.02	993.73	0.6935
310.15 K, m1 = 0.025	993.741	0.6938
313.15 K, m1 = 0.0076	992.443	0.6556
313.15 K, m1 = 0.01	992.499	0.6557
313.15 K, m1 = 0.0125	992.539	0.6558
313.15 K, m1 = 0.0152	992.571	0.656
313.15 K, m1 = 0.0175	992.592	0.6562
313.15 K, m1 = 0.02	992.601	0.6564
313.15 K, m1 = 0.025	992.609	0.6568

CC(CN(C)C)CN1c2ccccc2CCc2ccccc21.O=C(O)/C=C\C(=O)O (stereo not drawn) [trimipramine maleate] + O
Conditions	mass density [kg/m3]	viscosity [mPa·s]
293.15 K, m1 = 0.0075	998.499	1.035
293.15 K, m1 = 0.01	998.566	1.035
293.15 K, m1 = 0.0125	998.625	1.036
293.15 K, m1 = 0.0152	998.675	1.036
293.15 K, m1 = 0.0175	998.715	1.037
293.15 K, m1 = 0.02	998.745	1.038
293.15 K, m1 = 0.025	998.799	1.04
298.15 K, m1 = 0.0076	997.329	0.937
298.15 K, m1 = 0.01	997.396	0.9373
298.15 K, m1 = 0.0125	997.455	0.9376
298.15 K, m1 = 0.0152	997.499	0.9379
298.15 K, m1 = 0.0175	997.535	0.9382
298.15 K, m1 = 0.02	997.569	0.9385
298.15 K, m1 = 0.025	997.601	0.9393
303.15 K, m1 = 0.0076	995.919	0.8339
303.15 K, m1 = 0.01	995.981	0.8342
303.15 K, m1 = 0.0125	996.031	0.8345
303.15 K, m1 = 0.0152	996.081	0.8348
303.15 K, m1 = 0.0175	996.105	0.835
303.15 K, m1 = 0.02	996.141	0.8354
303.15 K, m1 = 0.025	996.175	0.8361
308.15 K, m1 = 0.0076	994.296	0.7339
308.15 K, m1 = 0.01	994.355	0.7341
308.15 K, m1 = 0.0125	994.401	0.7343
308.15 K, m1 = 0.0152	994.455	0.7346
308.15 K, m1 = 0.0175	994.475	0.7348
308.15 K, m1 = 0.02	994.515	0.7351
308.15 K, m1 = 0.025	994.535	0.7355
310.15 K, m1 = 0.0076	993.58	0.6928
310.15 K, m1 = 0.01	993.638	0.693
310.15 K, m1 = 0.0125	993.681	0.6932
310.15 K, m1 = 0.0152	993.721	0.6934
310.15 K, m1 = 0.0175	993.749	0.6937
310.15 K, m1 = 0.02	993.769	0.6939
310.15 K, m1 = 0.025	993.799	0.6943
313.15 K, m1 = 0.0076	992.458	0.6561
313.15 K, m1 = 0.01	992.506	0.6564
313.15 K, m1 = 0.0125	992.551	0.6566
313.15 K, m1 = 0.0152	992.589	0.6568
313.15 K, m1 = 0.0175	992.609	0.6571
313.15 K, m1 = 0.02	992.615	0.6573
313.15 K, m1 = 0.025	992.635	0.6579
